Results on 36 compounds are retold here after PubChem BioAssay (NCI).

Usually GI50 stands for the concentration giving 50% growth inhibition. In general, TGI refers to the concentration at which net growth stops.

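Growth conditions: 96-well plates. Treatment: test compound, 48 hours, 5 concentrations. Analysis: linear interpolation between bracketing concentrations; unreached endpoints set to highest concentration. The concentration for 50% growth inhibition is given as GI50. TGI: concentration producing complete growth inhibition.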

The subject of the experiment is MDA-MB-468 breast. The experiment in a line: DTP human tumour cell line panel, 48 h.
On to `O=C1/C(=C/N2N=C(c3ccc4ccccc4c3)CC2c2ccccc2O)SC(=S)N1c1cccnc1` (configuration not stated), for which the GI50 was 1060 nM and the TGI worked out at 5.33 µM.
Turning to `COc1ccc(-c2noc(N)c2-c2cc(OC)c3c(c2)OCO3)cc1`, the GI50 is 966 nM and the TGI was 7.47 µM.
The matching figures for `CCOC(=O)C1=C(N)Oc2c(sc3c(C)cccc23)C1c1ccc(F)cc1` (configuration not stated): 1160 nM and 8.8 µM.
The matching figures for `NCCCOc1cc(Cl)ccc1NC(=O)c1cc2ccccc2cc1OCCCN`: 543 nM and 1.89 µM.
The matching figures for `CC1(C)N=C(N)N=C(N)N1c1cccc(OCCOc2cccc([N+](=O)[O-])c2)c1`: 463 nM and 21.6 µM.
Consider `O=C1c2ccccc2C(=O)c2c(NCCN=Cc3ccccc3O)cccc21`, for which the GI50 was 1690 nM and the TGI was 4.42 µM.
Regarding `O=C(CCN1CCOCC1)Nc1cccc(-n2cc(-c3ccncc3)c(-c3ccc(Cl)c(O)c3)n2)c1`, the GI50 was 1250 nM and the TGI came to 3.95 µM.
For the compound `c1ccc2c(c1)c1ccccc1c1ccccc21`, the GI50 is over 100000 nM and the total growth inhibition concentration (TGI) is over 100 µM.
The matching figures for `O=C(N/N=C/c1ccc(O)cc1O)c1cccnc1`: 2230 nM and 11.8 µM.
The matching figures for `Cc1cc(NCCCCNc2ccnc3cc(Cl)ccc23)nc(Nc2ccc(C(=O)N3CCCCC3)cc2)n1`: 1370 nM and 3.09 µM.
The matching figures for `Oc1ccc(N=Nc2nccs2)c(O)c1`: 4760 nM and over 100 µM.
Consider `NCCCOc1cc2ccccc2cc1C(=O)NCCCOc1cc2ccccc2cc1C(=O)Nc1ccc(Cl)cc1O`, for which the 50% growth inhibitory concentration (GI50) is 238 nM and the TGI came to 0.821 µM.
The matching figures for `C=CCn1c(SCC(=O)Nc2ccc(C(=O)/C=C/c3cc(OC)c(OC)c(OC)c3)cc2)nnc1-c1ccc(OC)cc1`: 654 nM and 2.57 µM.
The matching figures for `Cn1cc(-c2csc(-c3cn(C)c4ccc(F)cc34)n2)c2cnccc21`: 1860 nM and 3.53 µM.
The matching figures for `CNCCn1c(=O)c2cc(OC)c(OC)cc2c2cnc3cc4c(cc3c21)OCO4`: under 10 nM and under 0.0177 µM.
Turning to `COC(=O)[C@]12CC[C@@H](C)[C@H](C)[C@@H]1C1=CC[C@@H]3[C@@]4(C)C(C=O)=C[C@@](C)(COC(=O)c5ccco5)[C@@H]4[C@H](O)C[C@@]3(C)[C@]1(C)CC2`, the GI50 was 1690 nM and the TGI came out at 5.66 µM.
The matching figures for `COc1ccc(-c2cc(Nc3ccnc(N4CCOCC4)n3)on2)cc1`: 375 nM and 2.49 µM.
Take `Cc1sc2c(c1C)C(c1ccc(Cl)cc1)=N[C@@H](CC(=O)Nc1ccc(OCCOCCOCCOCCNc3cccc4c3C(=O)N(C3CCC(=O)NC3=O)C4=O)cc1)c1nnc(C)n1-2` (some centres not stated): the GI50 was under 20.1 nM and the concentration for total growth inhibition (TGI) is over 100 µM.
`Cc1noc2c1-c1ccccc1C(c1ccc(Cl)cc1)=N[C@H]2CC(N)=O`: the GI50 was 1500 nM and the TGI was over 64.5 µM.
The matching figures for `NC(=O)CNc1ccc([As]=[As]c2ccc(NCC(N)=O)cc2)cc1` (configuration not stated): 1130 nM and 4.09 µM.
Turning to `COc1cc(OC)c2sc(-c3ccc(-n4cncc4-c4cc(OC)c(OC)c(OC)c4)cc3)nc2c1`, the GI50 was 3270 nM and the TGI is over 100 µM.
The matching figures for `O=C(NNc1cnccn1)c1nc2cc(F)ccc2n2cccc12`: 419 nM and 3.03 µM.
The matching figures for `COc1ccc2c(c1)C(C)Cc1c(ncnc1-n1cnc3ccccc31)N2C` (configuration not stated): 293 nM and 10.6 µM.
The matching figures for `O=C(Nc1ccc(Cl)cc1)Nc1nccs1`: 398 nM and 3.7 µM.
As to `COc1ccc(-c2nn(-c3cccc(Cl)c3)cc2-c2nc(N)[nH]c(=O)c2C#N)cc1`, the GI50 was 2120 nM and the TGI was found to be 6.43 µM.
The matching figures for `NC(N)=N/N=C(\N=Nc1ccccc1)c1ccc(Cl)cc1`: 2120 nM and 5.41 µM.
The matching figures for `COc1cc(/C=C2\CCC/C(=C\c3ccc(OCC4CO4)c(OC)c3)C2=O)ccc1OCC1CO1` (configuration not stated): 1630 nM and 4.85 µM.
The matching figures for `Nc1c(C(=O)Nc2ccccc2Cl)sc2nc3c(cc12)C(=O)CCC3`: 324 nM and 5.42 µM.
With `CNC(C)[C@H]1CCC2C3CC=C4C(=O)[C@@H](NC(=O)C=C(C)C)CC[C@]4(C)C3CC[C@@]21C` (some centres not stated), the GI50 was 939 nM and the concentration for total growth inhibition (TGI) worked out at 2.91 µM.
The matching figures for `Oc1ccc(Oc2cnc3ccccc3n2)cc1`: 49400 nM and over 100 µM.
In the case of `C=C(C)[C@@H]1CC[C@]2(C)[C@H](CC[C@@H]3[C@@H]([C@@](C)(O)CCC=C(C)C)CC[C@]32C)[C@@]1(C)CCC(=O)O`, the GI50 was 22400 nM and the TGI was 60.4 µM.
`Cn1cc(S(=O)(=O)N2CCC3=Cc4c(cnn4-c4ccc(F)cc4)C[C@]3(C(=O)c3cc(C(F)(F)F)ccn3)C2)cn1`: the GI50 was 68800 nM and the TGI is over 100 µM.
The matching figures for `COc1ccc(-c2ccc(NNC(=O)c3ccc(F)cc3)nn2)cc1OC`: 64300 nM and over 100 µM.
The matching figures for `O=C(N[C@@H](Cc1coc2ccccc12)B(O)O)[C@@H]1C[C@H]2CC[C@@H]1O2`: 3380 nM and 36 µM.
The matching figures for `CN(C)CCNc1nc2ccccc2c2c(=O)c3cc(F)ccc3sc12`: 1650 nM and 3.22 µM.
Take `O=C(NC1CCCCC1)c1ccc(Nc2ncnc3c2cnn3-c2ccccc2)cc1`: the GI50 is 21700 nM and the TGI is over 100 µM.
